The values below are quoted from earlier work in US7189385B2, “Tooth whitening compositions” (Discus Dental Impressions, Inc., priority 1997, dated 2007).

For this data set the following is noted: listed as GRAS, 21 CFR 184.1901.

`CC(=O)OCC(COC(C)=O)OC(C)=O` [Glyceryl triacetate]: the toxicity entry was “extremely low order of toxicity”.
